Bridge positions count the residues as written; N and C are the ends. Square brackets hold non-standard residues; d marks the D form. Peptide text beside a SMILES is read from it. 1Nal = N[C@@H](Cc1cccc2ccccc12)C(=O)O
What was measured:
human Kv1.3 (CHO) = molecular target: T1, human Kv1.3 (CHO) (Homo sapiens, UniProt P22001); assay: cell-based
T1 construct: expressed in transfected cells; host or cells: CHO

human Kv1.1 (HEK293) = molecular target: T2, human Kv1.1 (HEK293) (Homo sapiens, UniProt Q09470); assay: cell-based
T2 construct: expressed in transfected cells; host or cells: HEK293
T2 sequence (Q09470 whole entry): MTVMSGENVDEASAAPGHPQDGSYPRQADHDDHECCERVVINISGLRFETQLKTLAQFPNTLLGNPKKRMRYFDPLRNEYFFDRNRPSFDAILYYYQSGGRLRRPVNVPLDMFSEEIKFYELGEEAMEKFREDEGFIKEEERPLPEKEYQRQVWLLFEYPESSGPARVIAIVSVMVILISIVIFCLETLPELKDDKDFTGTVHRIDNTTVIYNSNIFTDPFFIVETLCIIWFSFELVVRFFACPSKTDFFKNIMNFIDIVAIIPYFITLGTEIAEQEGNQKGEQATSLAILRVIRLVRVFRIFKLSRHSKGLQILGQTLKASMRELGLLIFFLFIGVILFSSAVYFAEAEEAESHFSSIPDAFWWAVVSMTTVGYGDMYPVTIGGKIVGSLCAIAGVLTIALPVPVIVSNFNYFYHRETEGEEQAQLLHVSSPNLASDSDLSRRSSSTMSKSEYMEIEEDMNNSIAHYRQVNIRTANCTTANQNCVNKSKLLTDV

T1 sequence (P22001 whole entry): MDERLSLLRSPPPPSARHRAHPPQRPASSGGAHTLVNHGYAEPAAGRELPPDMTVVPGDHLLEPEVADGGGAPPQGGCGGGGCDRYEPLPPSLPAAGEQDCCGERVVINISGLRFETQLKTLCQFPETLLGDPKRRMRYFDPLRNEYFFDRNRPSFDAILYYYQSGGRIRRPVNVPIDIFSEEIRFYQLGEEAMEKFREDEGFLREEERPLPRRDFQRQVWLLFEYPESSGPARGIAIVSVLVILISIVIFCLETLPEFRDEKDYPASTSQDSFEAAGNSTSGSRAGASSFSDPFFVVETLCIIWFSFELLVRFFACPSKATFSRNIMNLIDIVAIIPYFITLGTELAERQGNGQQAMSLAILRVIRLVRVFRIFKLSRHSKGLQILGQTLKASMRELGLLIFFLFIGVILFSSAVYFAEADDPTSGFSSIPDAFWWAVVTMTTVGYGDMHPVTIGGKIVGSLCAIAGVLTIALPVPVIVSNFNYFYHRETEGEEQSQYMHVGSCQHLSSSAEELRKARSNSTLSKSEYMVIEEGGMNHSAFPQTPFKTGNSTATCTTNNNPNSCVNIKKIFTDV

Row | SMILES | IC50 (human Kv1.3 (CHO)) [pM] | IC50 (human Kv1.1 (HEK293)) [pM]
1 | CC[C@H](C)[C@@H]1NC(=O)[C@H](CCCCN)NC(=O)[C@@H](NC(=O)[C@H](CCCCN)NC(=O)[C@@H](NC(=O)[C@H](CC(N)=O)NC(=O)[C@@H](NC(=O)[C@@H](NC(=O)[C@@H](NC(=O)CN)C(C)C)[C@@H](C)CC)[C@@H](C)CC)C(C)C)CSSC[C@@H]2NC(=O)[C@H](CCCCN)NC(=O)CNC(=O)[C@H](Cc3ccccc3)NC(=O)[C@H](CCCNC(=N)N)NC(=O)[C@H](CCSC)NC(=O)CNC(=O)[C@H](C)NC(=O)[C@H](CCCCN)NC(=O)[C@H](CCCCN)NC(=O)[C@@H]3CSSC[C@@H](C(=O)N[C@H](C(=O)N[C@@H](CCCNC(=N)N)C(=O)N[C@@H](CCCCN)C(=O)O)[C@@H](C)O)NC(=O)[C@H](Cc4c[nH]cn4)NC(=O)[C@H](CSSC[C@H](NC(=O)[C@H](CCC(N)=O)NC(=O)[C@H](CCCNC(=N)N)NC(=O)[C@H](CO)NC1=O)C(=O)N[C@@H](CC(C)C)C(=O)N[C@@H](CCC(=O)O)C(=O)N1CCC[C@H]1C(=O)N3)NC(=O)[C@H](CCCCN)NC(=O)CNC(=O)[C@H](CC(N)=O)NC(=O)[C@H](CCSC)NC2=O [P37R] (H-GVIINVKCKISRQCLEPCKKAGMRFGKCMNGKCHCTRK-OH; disulfide 8-28, 14-33, 18-35) | 13.3 | 2.01
2 | CC[C@H](C)[C@@H]1NC(=O)[C@H](CCCCN)NC(=O)[C@@H](NC(=O)[C@H](CCCCN)NC(=O)[C@@H](NC(=O)[C@H](CC(N)=O)NC(=O)[C@@H](NC(=O)[C@@H](NC(=O)[C@@H](NC(=O)CN)C(C)C)[C@@H](C)CC)[C@@H](C)CC)C(C)C)CSSC[C@@H]2NC(=O)[C@H](CCCCN)NC(=O)CNC(=O)[C@H](Cc3ccccc3)NC(=O)[C@H](CCCNC(=N)N)NC(=O)[C@H](CCSC)NC(=O)CNC(=O)[C@H](C)NC(=O)[C@H](CCCCN)NC(=O)[C@H](CCCCN)NC(=O)[C@@H]3CSSC[C@@H](C(=O)N[C@H](C(=O)N4CCC[C@H]4C(=O)N[C@@H](CCCCN)C(=O)O)[C@@H](C)O)NC(=O)[C@H](Cc4c[nH]cn4)NC(=O)[C@H](CSSC[C@H](NC(=O)[C@H](C)NC(=O)[C@H](CCCNC(=N)N)NC(=O)[C@H](CO)NC1=O)C(=O)N[C@@H](CC(C)C)C(=O)N[C@@H](CCC(=O)O)C(=O)N1CCC[C@H]1C(=O)N3)NC(=O)[C@H](CCCCN)NC(=O)CNC(=O)[C@H](CC(N)=O)NC(=O)[C@H](CCSC)NC2=O [Q13A] (H-GVIINVKCKISRACLEPCKKAGMRFGKCMNGKCHCTPK-OH; disulfide 8-28, 14-33, 18-35) | 249 | 21.7
3 | CC[C@H](C)[C@@H]1NC(=O)[C@H](CCCCN)NC(=O)[C@@H](NC(=O)[C@H](CCCCN)NC(=O)[C@@H](NC(=O)[C@H](CC(N)=O)NC(=O)[C@@H](NC(=O)[C@@H](NC(=O)[C@@H](NC(=O)CN)C(C)C)[C@@H](C)CC)[C@@H](C)CC)C(C)C)CSSC[C@@H]2NC(=O)[C@H](CCCCN)NC(=O)CNC(=O)[C@H](Cc3ccccc3)NC(=O)[C@H](CCCNC(=N)N)NC(=O)[C@H](CCSC)NC(=O)CNC(=O)[C@H](C)NC(=O)[C@H](CCCCN)NC(=O)[C@H](CCCCN)NC(=O)[C@@H]3CSSC[C@@H](C(=O)N[C@H](C(=O)N4CCC[C@H]4C(=O)N[C@@H](CCCCN)C(=O)O)[C@@H](C)O)NC(=O)[C@H](Cc4c[nH]cn4)NC(=O)[C@H](CSSC[C@H](NC(=O)[C@H](CCC(=O)O)NC(=O)[C@H](CCCNC(=N)N)NC(=O)[C@H](CO)NC1=O)C(=O)N[C@@H](CC(C)C)C(=O)N[C@@H](CCC(=O)O)C(=O)N1CCC[C@H]1C(=O)N3)NC(=O)[C@H](CCCCN)NC(=O)CNC(=O)[C@H](CC(N)=O)NC(=O)[C@H](CCSC)NC2=O [Q13E] (H-GVIINVKCKISRECLEPCKKAGMRFGKCMNGKCHCTPK-OH; disulfide 8-28, 14-33, 18-35) | 45.9 | 6.28
4 | CC[C@H](C)[C@@H]1NC(=O)[C@H](CCCCN)NC(=O)[C@@H](NC(=O)[C@H](CCCCN)NC(=O)[C@@H](NC(=O)[C@H](CC(N)=O)NC(=O)[C@@H](NC(=O)[C@@H](NC(=O)[C@@H](NC(=O)CN)C(C)C)[C@@H](C)CC)[C@@H](C)CC)C(C)C)CSSC[C@@H]2NC(=O)[C@H](CCCCN)NC(=O)CNC(=O)[C@H](Cc3ccccc3)NC(=O)[C@H](CCCNC(=N)N)NC(=O)[C@H](CCSC)NC(=O)CNC(=O)[C@H](C)NC(=O)[C@H](CCCCN)NC(=O)[C@H](CCCCN)NC(=O)[C@@H]3CSSC[C@@H](C(=O)N[C@H](C(=O)N4CCC[C@H]4C(=O)N[C@@H](CCCCN)C(=O)O)[C@@H](C)O)NC(=O)[C@H](Cc4c[nH]cn4)NC(=O)[C@H](CSSC[C@H](NC(=O)[C@H](CCCNC(=N)N)NC(=O)[C@H](CCCNC(=N)N)NC(=O)[C@H](CO)NC1=O)C(=O)N[C@@H](CC(C)C)C(=O)N[C@@H](CCC(=O)O)C(=O)N1CCC[C@H]1C(=O)N3)NC(=O)[C@H](CCCCN)NC(=O)CNC(=O)[C@H](CC(N)=O)NC(=O)[C@H](CCSC)NC2=O [Q13R] (H-GVIINVKCKISRRCLEPCKKAGMRFGKCMNGKCHCTPK-OH; disulfide 8-28, 14-33, 18-35) | 15.3 | < 1.52
5 | CC[C@H](C)[C@@H]1NC(=O)[C@H](CCCCN)NC(=O)[C@@H](NC(=O)[C@H](CCCCN)NC(=O)[C@@H](NC(=O)[C@H](CC(N)=O)NC(=O)[C@@H](NC(=O)[C@@H](NC(=O)[C@@H](NC(=O)CN)C(C)C)[C@@H](C)CC)[C@@H](C)CC)C(C)C)CSSC[C@@H]2NC(=O)[C@H](CCCCN)NC(=O)CNC(=O)[C@H](Cc3ccccc3)NC(=O)[C@H](CCCNC(=N)N)NC(=O)[C@H](CCSC)NC(=O)CNC(=O)[C@H](C)NC(=O)[C@H](CCCCN)NC(=O)[C@H](CCCCN)NC(=O)[C@@H]3CSSC[C@@H](C(=O)N[C@H](C(=O)N4CCC[C@H]4C(=O)N[C@@H](CCCCN)C(=O)O)[C@@H](C)O)NC(=O)[C@H](Cc4c[nH]cn4)NC(=O)[C@H](CSSC[C@H](NC(=O)[C@H](CCC(N)=O)NC(=O)[C@H](CCC(=O)O)NC(=O)[C@H](CO)NC1=O)C(=O)N[C@@H](CC(C)C)C(=O)N[C@@H](CCC(=O)O)C(=O)N1CCC[C@H]1C(=O)N3)NC(=O)[C@H](CCCCN)NC(=O)CNC(=O)[C@H](CC(N)=O)NC(=O)[C@H](CCSC)NC2=O [R12E] (H-GVIINVKCKISEQCLEPCKKAGMRFGKCMNGKCHCTPK-OH; disulfide 8-28, 14-33, 18-35) | 89.7 | 193
6 | CC[C@H](C)[C@@H]1NC(=O)[C@H](CCCCN)NC(=O)[C@@H](NC(=O)[C@H](CCCCN)NC(=O)[C@@H](NC(=O)[C@H](CC(N)=O)NC(=O)[C@@H](NC(=O)[C@@H](NC(=O)[C@@H](NC(=O)CN)C(C)C)[C@@H](C)CC)[C@@H](C)CC)C(C)C)CSSC[C@@H]2NC(=O)[C@H](CCCCN)NC(=O)CNC(=O)[C@H](Cc3ccccc3)NC(=O)[C@H](C)NC(=O)[C@H](CCSC)NC(=O)CNC(=O)[C@H](C)NC(=O)[C@H](CCCCN)NC(=O)[C@H](CCCCN)NC(=O)[C@@H]3CSSC[C@@H](C(=O)N[C@H](C(=O)N4CCC[C@H]4C(=O)N[C@@H](CCCCN)C(=O)O)[C@@H](C)O)NC(=O)[C@H](Cc4c[nH]cn4)NC(=O)[C@H](CSSC[C@H](NC(=O)[C@H](CCC(N)=O)NC(=O)[C@H](CCCNC(=N)N)NC(=O)[C@H](CO)NC1=O)C(=O)N[C@@H](CC(C)C)C(=O)N[C@@H](CCC(=O)O)C(=O)N1CCC[C@H]1C(=O)N3)NC(=O)[C@H](CCCCN)NC(=O)CNC(=O)[C@H](CC(N)=O)NC(=O)[C@H](CCSC)NC2=O [R24A] (H-GVIINVKCKISRQCLEPCKKAGMAFGKCMNGKCHCTPK-OH; disulfide 8-28, 14-33, 18-35) | > 3000 | 1890
7 | CC[C@H](C)[C@@H]1NC(=O)[C@H](CCCCN)NC(=O)[C@@H](NC(=O)[C@H](CCCCN)NC(=O)[C@@H](NC(=O)[C@H](CC(N)=O)NC(=O)[C@@H](NC(=O)[C@@H](NC(=O)[C@@H](NC(=O)CN)C(C)C)[C@@H](C)CC)[C@@H](C)CC)C(C)C)CSSC[C@@H]2NC(=O)[C@H](CCCCN)NC(=O)CNC(=O)[C@H](Cc3ccccc3)NC(=O)[C@H](Cc3cccc4ccccc34)NC(=O)[C@H](CCSC)NC(=O)CNC(=O)[C@H](C)NC(=O)[C@H](CCCCN)NC(=O)[C@H](CCCCN)NC(=O)[C@@H]3CSSC[C@@H](C(=O)N[C@H](C(=O)N4CCC[C@H]4C(=O)N[C@@H](CCCCN)C(=O)O)[C@@H](C)O)NC(=O)[C@H](Cc4c[nH]cn4)NC(=O)[C@H](CSSC[C@H](NC(=O)[C@H](CCC(N)=O)NC(=O)[C@H](CCCNC(=N)N)NC(=O)[C@H](CO)NC1=O)C(=O)N[C@@H](CC(C)C)C(=O)N[C@@H](CCC(=O)O)C(=O)N1CCC[C@H]1C(=O)N3)NC(=O)[C@H](CCCCN)NC(=O)CNC(=O)[C@H](CC(N)=O)NC(=O)[C@H](CCSC)NC2=O [R24Nal] (H-GVIINVKCKISRQCLEPCKKAGM[1Nal]FGKCMNGKCHCTPK-OH; disulfide 8-28, 14-33, 18-35) | 45.3 | 2.85
8 | CC[C@H](C)[C@@H]1NC(=O)[C@H](CCCCN)NC(=O)[C@@H](NC(=O)[C@H](CCCCN)NC(=O)[C@@H](NC(=O)[C@H](CC(N)=O)NC(=O)[C@@H](NC(=O)[C@@H](NC(=O)[C@@H](NC(=O)CN)C(C)C)[C@@H](C)CC)[C@@H](C)CC)C(C)C)CSSC[C@@H]2NC(=O)[C@H](CCCCN)NC(=O)CNC(=O)[C@H](Cc3ccccc3)NC(=O)[C@H](CCCNC(=N)N)NC(=O)[C@H](CCSC)NC(=O)CNC(=O)[C@H](C)NC(=O)[C@H](CCCCN)NC(=O)[C@H](CCCCN)NC(=O)[C@@H]3CSSC[C@@H](C(=O)N[C@H](C(=O)N4CCC[C@H]4C(=O)N[C@@H](CCCCN)C(=O)O)[C@@H](C)O)NC(=O)[C@H](Cc4c[nH]cn4)NC(=O)[C@H](CSSC[C@H](NC(=O)[C@H](CCC(N)=O)NC(=O)[C@H](CCCNC(=N)N)NC(=O)[C@H](C)NC1=O)C(=O)N[C@@H](CC(C)C)C(=O)N[C@@H](CCC(=O)O)C(=O)N1CCC[C@H]1C(=O)N3)NC(=O)[C@H](CCCCN)NC(=O)CNC(=O)[C@H](CC(N)=O)NC(=O)[C@H](CCSC)NC2=O [S11A] (H-GVIINVKCKIARQCLEPCKKAGMRFGKCMNGKCHCTPK-OH; disulfide 8-28, 14-33, 18-35) | 40.8 | 113

From patent US20090299044A1 (priority 2006, published 2009)
